# According to PMC9632963, “Preclinical characterization and phase I clinical trial of CT053PTSA targets MET, AXL, and VEGFR2 in patients with advanced solid tumors” (Frontiers in Immunology, 2022):
# Tested on: patients with advanced solid tumors
# Experiment: Phase I trial: safety, tolerability, DLT, MTD (CTCAE v4.0)
# Type: in vivo
# Excerpt: Eligible patients had at least one measurable lesion per RECIST v 1.1, Eastern Cooperative Oncology Group (ECOG) performance status of 0 or 1, and adequate hematological, renal, cardiac and hepatic functions. The primary objectives were to assess safety and tolerability as well as to determine the MTD, DLT, and dose recommended for further study. The secondary objectives were to assess the PK and preliminary efficacy of CT053PTSA.
# An initial accelerated titration design was used in the 15 and 30 mg QD cohorts, and the “3+3” schema was used starting in the 60 mg QD cohort. […] The study protocol was approved by an institutional review board at Sun Yat-sen University Cancer Center. Written informed consent was obtained from all the patients before enrollment.
# Descriptive statistics of safety are presented per CTCAE v4.0. Subjects who received at least one dose of CT053PTSA were considered eligible to be evaluated and included in safety analyses. […] According to the RECIST 1.1 criteria, imaging examinations were performed at each specified time point in the protocol. The antitumor activity was measured by RECIST1.1.
structure (smiles),measurement,setting,value
Cc1c(C(=O)Nc2ccc(Oc3ccnc4cc(OCC(C)(C)O)ccc34)c(F)c2)c(=O)n(-c2ccccc2)n1C [CT053PTSA],"Platelet count decreased, ≥ G3",150mg (n = 5),1 (20) n (%)
same,"Proteinuria, All",150mg (n = 5),0 n (%)
same,"Proteinuria, ≥ G3",150mg (n = 5),0 n (%)
same,"Pyrexia, All",150mg (n = 5),1 (20) n (%)
same,"Pyrexia, ≥ G3",150mg (n = 5),0 n (%)
same,"Sinus bradycardia, All",150mg (n = 5),1 (20) n (%)
same,"Sinus bradycardia, ≥ G3",150mg (n = 5),0 n (%)
same,"Stomatitis, All",150mg (n = 5),1 (20) n (%)
same,"Stomatitis, ≥ G3",150mg (n = 5),1 (20) n (%)
same,"Vomiting, All",150mg (n = 5),1 (20) n (%)
same,"Vomiting, ≥ G3",150mg (n = 5),0 n (%)
same,"leukopenia, All",150mg (n = 5),3 (60) n (%)
same,"leukopenia, ≥ G3",150mg (n = 5),1 (20) n (%)
same,"neutropenia, All",150mg (n = 5),2 (40) n (%)
same,"neutropenia, ≥ G3",150mg (n = 5),0 n (%)
same,"transaminase elevation, All",150mg (n = 5),4 (80) n (%)
same,"transaminase elevation, ≥ G3",150mg (n = 5),0 n (%)
same,patients with DLT / patients eligible for DLT assessment,150 mg QD,2/4 and Two of four
same,"Anaemia, All",All (n = 20),1 (5) n (%)
same,"Anaemia, ≥ G3",All (n = 20),0 n (%)
same,"Blood chloride decreased, All",All (n = 20),1 (5) n (%)
same,"Blood chloride decreased, ≥ G3",All (n = 20),0 n (%)
same,"Blood creatinine increased, All",All (n = 20),1 (5) n (%)
same,"Blood creatinine increased, ≥ G3",All (n = 20),0 n (%)
same,"Blood potassium decreased, All",All (n = 20),1 (5) n (%)
same,"Blood potassium decreased, ≥ G3",All (n = 20),0 n (%)
same,"Blood sodium decreased, All",All (n = 20),1 (5) n (%)
same,"Blood sodium decreased, ≥ G3",All (n = 20),1 (5) n (%)
same,"Blood uric acid increased, All",All (n = 20),1 (5) n (%)
same,"Blood uric acid increased, ≥ G3",All (n = 20),0 n (%)
same,"Decreased appetite, All",All (n = 20),6 (30) n (%)
same,"Decreased appetite, ≥ G3",All (n = 20),1 (5) n (%)
same,"Diarrhea, All",All (n = 20),2 (10) n (%)
same,"Diarrhea, ≥ G3",All (n = 20),0 n (%)
same,"Dizziness, All",All (n = 20),1 (5) n (%)
same,"Dizziness, ≥ G3",All (n = 20),0 n (%)
same,"Dry mouth, All",All (n = 20),1 (5) n (%)
same,"Dry mouth, ≥ G3",All (n = 20),0 n (%)
same,"Electrocardiogram QT prolonged, All",All (n = 20),3 (15) n (%)
same,"Electrocardiogram QT prolonged, ≥ G3",All (n = 20),0 n (%)
same,"Electrolyte imbalance, All",All (n = 20),1 (5) n (%)
same,"Electrolyte imbalance, ≥ G3",All (n = 20),0 n (%)
same,"Hemoglobin decreased, All",All (n = 20),1 (5) n (%)
same,"Hemoglobin decreased, ≥ G3",All (n = 20),0 n (%)
same,"Hypertension, All",All (n = 20),4 (20) n (%)
same,"Hypertension, ≥ G3",All (n = 20),1 (5) n (%)
same,"Hyponatremia, All",All (n = 20),2 (10) n (%)
same,"Hyponatremia, ≥ G3",All (n = 20),0 n (%)
same,"Hypoparathyroidism, All",All (n = 20),1 (5) n (%)
same,"Hypoparathyroidism, ≥ G3",All (n = 20),0 n (%)
same,"Mouth ulceration, All",All (n = 20),1 (5) n (%)
same,"Mouth ulceration, ≥ G3",All (n = 20),0 n (%)
same,"Nausea, All",All (n = 20),2 (10) n (%)
same,"Nausea, ≥ G3",All (n = 20),0 n (%)
same,"Oropharyngeal pain, All",All (n = 20),1 (5) n (%)
same,"Oropharyngeal pain, ≥ G3",All (n = 20),0 n (%)
same,"Pain, All",All (n = 20),1 (5) n (%)
same,"Pain, ≥ G3",All (n = 20),0 n (%)
same,"Palmar-plantar erythrodysaesthesia syndrome, All",All (n = 20),1 (5) n (%)
same,"Palmar-plantar erythrodysaesthesia syndrome, ≥ G3",All (n = 20),0 n (%)
same,"Platelet count decreased, All",All (n = 20),6 (30) n (%)
same,"Platelet count decreased, ≥ G3",All (n = 20),2 (10) n (%)
same,"Proteinuria, All",All (n = 20),1 (5) n (%)
same,"Proteinuria, ≥ G3",All (n = 20),0 n (%)
same,"Pyrexia, All",All (n = 20),1 (5) n (%)
same,"Pyrexia, ≥ G3",All (n = 20),0 n (%)
same,"Sinus bradycardia, All",All (n = 20),1 (5) n (%)
same,"Sinus bradycardia, ≥ G3",All (n = 20),0 n (%)
same,"Stomatitis, All",All (n = 20),2 (10) n (%)
same,"Stomatitis, ≥ G3",All (n = 20),1 (5) n (%)
same,"Vomiting, All",All (n = 20),1 (5) n (%)
same,"Vomiting, ≥ G3",All (n = 20),0 n (%)
same,"leukopenia, All",All (n = 20),9 (45) n (%)
same,"leukopenia, ≥ G3",All (n = 20),1 (5) n (%)
same,"neutropenia, All",All (n = 20),7 (35) n (%)
same,"neutropenia, ≥ G3",All (n = 20),0 n (%)
same,"transaminase elevation, ≥ G3",All (n = 20),1 (5) n (%)
same,TRAE any grade: decreased appetite,all patients n = 20,30%
same,TRAE any grade: decreased platelet count,all patients n = 20,30%
same,TRAE any grade: hypertension,all patients n = 20,20%
same,TRAE any grade: leukopenia,all patients n = 20,45%
same,TRAE any grade: neutropenia,all patients n = 20,35%
same,TRAE any grade: transaminase elevation,all patients n = 20,65%
same,grade 3 TRAE: decreased appetite,all patients n = 20,5%
same,grade 3 TRAE: decreased blood sodium,all patients n = 20,5%
same,grade 3 TRAE: decreased platelet count,all patients n = 20,10%
same,grade 3 TRAE: elevated transaminase,all patients n = 20,5%
same,grade 3 TRAE: hypertension,all patients n = 20,5%
same,grade 3 TRAE: leukopenia,all patients n = 20,5%
same,grade 3 TRAE: stomatitis,all patients n = 20,5%
same,patients with at least one adverse event (AE),all patients n = 20,95%
same,patients with grade 3 TRAEs,all patients n = 20,15%
same,patients with treatment-related adverse events (TRAEs),all patients n = 20,80%
same,recommended dose for further study,in vivo,60~100 mg QD
same,MTD,oral QD,100 mg
